Assay [1] deals with Raji (Burkitt's) lymphoma cells. Briefly: MTT assay for 4-day viability of Raji (Burkitt's) lymphoma cells. The following applies: Homo sapiens, 96 h, Raji cells (highly express MCT1), estimated values, read-out: approximate potency (EC50 nM). The class given is cell-based. From the text:
Specific Examples of compounds of the invention, with estimated EC50 values determined using an MTT assay for 4-day viability of Raji (Burkitt's) lymphoma cells, a cell line known to highly express MCT1 and to be sensitive to small molecule MCT inhibitors,^4 are shown in Table 3. Assay protocols follow those described in the literature.^4 Other assays that are not described here but that are standard in the field, such as an assay for competitive inhibition of transport of radiolabeled lactic acid, an MCT substrate, may also be useful in establishing mechanism of action of these compounds.

Assay [2] has as its system Raji Burkitt lymphoma cells. Kind of assay: Xenograft of tumors derived from Raji Burkitt lymphoma cells in nude mice. The following applies: versus vehicle. The class given is in vivo. On the procedure:
(§1) The in vivo effects of a few selected agents have been evaluated in mouse xenograft models and found to be effective. Protocols follow those described in the literature.^4
(§2) Mice were transplanted with cultured tumor cells and after an incubation period (typically 8-12 days), mice were left untreated or were treated daily with a 30 mg/kg dose of the test compound. Tumor volumes were measured with calipers over […] of treatment. Tumors were excised and weighed at the end of treatment. In some experiments the mice were co-treated daily with a 30 mg/kg dose of the test compound and 5 mg/kg of metformin.
In a separate experiment, this same compound was used in a study using implanted tumors derived from Raji Burkitt lymphoma cells, implanted into nude mice and treated as before with vehicle, with SR-11431, or with SR-11431 plus metformin.

The next assay relates to T47D tumor cells. Kind of assay: Mouse xenograft experiment using T47D tumor cells. The assay is classed as in vivo, mice. The following applies: 30 mg/kg daily. On the procedure: as §1, §2

These results are taken from patent publication US10874675B2, “Pteridine dione monocarboxylate transporter inhibitors” (The Scripps Research Institute, priority 2015, dated 2020).

Broadly, the EC50 is the concentration at which the effect is half-maximal.

With `CC(C)Cn1c(=O)n(C)c(=O)c2nc(CCCCCO)c(COc3cccc4cnccc34)nc21` [Example 3, 6-(5-hydroxypentyl)-1-isobutyl-7-((isoquinolin-5-yloxy)methyl)-3-methylpteridine-2,4(1H,3H)-dione], the half-maximal effective concentration (EC50) in assay [1] is < 50 nM. In addition, in assay [2] (30 mg/kg daily (co-treatment: plus 5 mg/kg metformin), 30-day time course), the “tumor volume over time” value was “Reduction of tumor volume over time”. The final tumor weight entry in assay [2] (end of treatment (day 32)) was “not significantly changed”. In addition, in the assay on T47D tumor cells (versus vehicle), the tumor volume entry was “significant reduction of tumor volume”. Also, the final tumor mass entry in the assay with T47D tumor cells (versus vehicle treated animals, end of treatment) is on record as “reduction in final tumor mass”. Turning to `CC(C)Cn1c(=O)n(C)c(=O)c2nc(CCCCCO)c(COc3cccc4nccnc34)nc21` [Example 30, 6-(5-hydroxypentyl)-1-isobutyl-3-methyl-7-((quinoxalin-5-yloxy)methyl)pteridine-2,4(1H,3H)-dione], in assay [1], the EC50 is ≤ 1000 nM.

As to `CC(C)Cn1c(=O)n(C)c(=O)c2nc(CCCCCO)c(COc3cccnc3)nc21` [Example 31, 6-(5-hydroxypentyl)-1-isobutyl-3-methyl-7-((pyridin-3-yloxy)methyl)pteridine-2,4(1H,3H)-dione], in assay [1], the half-maximal effective concentration (EC50) was ≤ 1000 nM. Regarding `CC(C)Cn1c(=O)n(C)c(=O)c2nc(CCCCCO)c(COc3cccc([N+](=O)[O-])c3)nc21` [Example 32, 6-(5-hydroxypentyl)-1-isobutyl-3-methyl-7-((3-nitrophenoxy)methyl)pteridine-2,4(1H,3H)-dione], in assay [1], the EC50 was ≤ 1000 nM. As for `CC(C)Cn1c(=O)n(C)c(=O)c2nc(CCCCCO)c(COc3cccc(N)c3)nc21` [Example 33, 7-((3-aminophenoxy)methyl)-6-(5-hydroxypentyl)-1-isobutyl-3-methylpteridine-2,4(1H,3H)-dione], the concentration for a half-maximal effect (EC50) in assay [1] was ≤ 100 nM. The same measure, in the same setting: the result for `CC(C)Cn1c(=O)n(C)c(=O)c2nc(CCCCCO)c(COc3ccccc3C#N)nc21` [Example 34, 2-((6-(5-hydroxypentyl)-1-isobutyl-3-methyl-2,4-dioxo-1,2,3,4-tetrahydropteridin-7-yl)methoxy)benzonitrile] reads ≥ 2000 nM; that for `CC(C)Cn1c(=O)n(C)c(=O)c2nc(CCc3ccccc3CO)c(COc3cccc4ccccc34)nc21` [Example 35, 6-(2-(hydroxymethyl)phenethyl)-1-isobutyl-3-methyl-7-((naphthalen-1-yloxy)methyl)pteridine-2,4(1H,3H)-dione], ≤ 100 nM.
